What was measured:
diabetes models = assay: blood sugar in mice diabetes models made by injecting Tetraoxymidine; type: in vivo, Kumming species mice; details: for Blood sugar value, After Use / Reducer rate (-.increment.X%) / Blood sugar value, Before Use: 11 female mice, 0.2 ml/mouse/day; for Blood sugar value, After Use: 6 days after filling the gastric, 0.5 mg/ml powder; for Reducer rate (-.increment.X%) / sequence of reducing blood sugar: 6 days; for Reducer rate (-.increment.X%): 0.5 mg/ml; for Blood sugar value, Before Use: baseline before 0.5 mg/ml powder
Description: Then, an animal experiment was conducted using a powder and concentrated powder from the methods of steps of FIGS. 2 through 5. The experimental method is as follows: Separate 88 Kumming species mice randomly to reference group, DSP group, DAS group, DAS 1, DAS 2, and DAS 3 groups, Damicron group, and Youjiangtang group, 11 female mice in each group. Use the mice to make diabetes models by injecting Tetraoxymidine, and compare experiment group with known DSP, Damicron, Youjiangtang (as the standard sample). The dose for every group: 0.5 mg/ml powder, every day 0.2 ml for every mouse, and every day 0.2 ml sodium chloride solution for the reference group only. Take blood to measure blood sugar value 6 days after filling the gastric.

[1] = tested on: non-insulin dependent type diabetes; assay: clinical experiments on humans, non-insulin dependent type diabetes; details: human, in vivo
Description: (§1) Clinical experiments were also conducted on humans from various provinces of China. Five examples of these clinical experiments are as follows (in each experiment each tablet had 20 mg of non-concentrated powder of Echevaria glauca, Sinocrassula berger, Crassulaceae according to the invention): […]

[2] = tested on: polychromatic erythrocytes; assay: Mouse marrow micronucleus experiment; type: in vivo, Kumming species mouse
Description: 2 Mouse marrow micronucleus experiment:
Adopting first class qualified Kumming species mouse (provided by animal house of CMA) whose weight are 24~30 g. Making 3 DAS dose groups as 10, 600, 1200 mg/kg plus a positive (cyclophosphamide 30 mg/kg, inject to stomach 2 times) and a negative reference group, 10 mice for each group, half male and half female. Filling the gastric of each mouse two days continuously, and executing the mouse 6 hours after last filling, taking sternum marrow to make thin section as routine, coloring to red. Counting 1000 polychromatic erythrocytes for each mouse, observing polychromatic erythrocytes which contains micronucleus and calculating the rate of micronucleus cell.

sperm = assay: Mouse sperm terata experiment; type: in vivo, Kumming species mouse
Description: 3 Mouse sperm terata experiment:
Adopting first class qualified Kumming species mouse (provided by animal house of CMA) whose weight are 27~36 g. Making 3 DAS dose groups as 10, 600, 1200 mg/kg plus a positive (cyclophosphamide 30 mg/kg, inject to stomach 5 days) and a negative reference group. Filling the gastric of each mouse for each of 5 days continuously, and executing the mouse at 35th day after first filling, taking epididymis of both sides, coloring, observing 1000 sperms for each mouse and calculating the ratio of sperm mutation.

[3] = tested on: insulin dependent type diabetes; assay: clinical experiment on human, insulin dependent type diabetes; type: in vivo, humans; details: Example 2, 20 units insulin injected
Description: as §1

Compound: Cc1ccc(S(=O)(=O)NC(=O)NN2CC3CCCC3C2)cc1 (stereo not drawn) [DMC]
- Blood sugar value, After Use (diabetes models): 110.50 mg %
- Reducer rate (-.increment.X%) (diabetes models): 42.55%
- Blood sugar value, Before Use (diabetes models): 292.35 mg %
- sequence of reducing blood sugar (diabetes models): DAS2 >DAS3 >DAS1>DSP>YJT>DMC

Compound: COc1ccc(Cl)cc1C(=O)NCCc1ccc(S(=O)(=O)NC(=O)NC2CCCCC2)cc1 [YJT]
- side effect (a sign of low blood sugar) [1]: became dizzy
- Blood sugar value, After Use (diabetes models): 162.28 mg %
- Reducer rate (-.increment.X%) (diabetes models): 45.28%
- Blood sugar value, Before Use (diabetes models): 296.38 mg %
- sequence of reducing blood sugar (diabetes models): DAS2 >DAS3 >DAS1>DSP>YJT>DMC

Compound: O=P1(N(CCCl)CCCl)NCCCO1 (stereo not drawn) [cyclophosphamide]
- Ratio of cell micronucleus ([2]; Positive R.G., 30 mg/kg, 2 times): 45.3%
- P vs negative group, micronucleus ([2]; positive reference group): < 0.01
- Variant rate (sperm; Positive R.G., 30 mg/kg, 5 days): 61.9%
- Variant sperm number (sperm; Positive R.G., 30 mg/kg, 5 days, 10000 sperm observed): 619
- P vs negative group, sperm terata (sperm; positive reference group): < 0.01

Compound: insulin
- high or low blood sugar before DAS [3]: became high or low blood sugar occasionally

From patent US5911993A, “Homeopathic antidiabetic treatment” (priority 1997, dated 1999)
